Results as given in US20210395645A1, “CLEANING LIQUID” (FUJIFILM Electronic Materials Co., Ltd., priority 2019, published 2021).

From the text: The following compounds were used as chelating agents in manufacture of cleaning liquids.

Row | pKa1 | pKa2 | pKa3 | pKa4 | pKa5 | pKa6 | pKa7 | pKa8 | SMILES
1 | 2.35 | 9.87 |  |  |  |  |  |  | NCCC(=O)O [ALA, β-Alanine]
2 | 1.82 | 9.01 | 12.48 |  |  |  |  |  | N=C(N)NCCC[C@H](N)C(=O)O [Arginine]
3 |  |  | 6.71 |  |  |  |  |  | O=C(O)CC(O)(CC(=O)O)C(=O)O [Citric acid]
4 | 2.14 | 2.38 | 4.26 | 8.60 | 10.53 |  |  |  | O=C(O)CN(CCN(CC(=O)O)CC(=O)O)CCN(CC(=O)O)CC(=O)O [DTPA, Diethylenetriaminepentaacetic acid]
5 | 2.00 | 2.70 | 6.2 | 10.30 |  |  |  |  | O=C(O)CN(CCN(CC(=O)O)CC(=O)O)CC(=O)O [EDTA, Ethylenediaminetetraacetic acid]
6 | 1.46 | 2.72 | 5.06 | 6.18 | 6.63 | 7.43 | 9.22 | 10.6 | O=P(O)(O)CN(CCN(CP(=O)(O)O)CP(=O)(O)O)CP(=O)(O)O [EDTPO, N,N,N′,N′-Ethylenediaminetetrakis(methylenephosphonic acid)]
7 | 2.35 | 9.78 |  |  |  |  |  |  | NCC(=O)O [Gly, Glycine]
8 | 1.35 | 2.87 | 7.03 | 11.3 |  |  |  |  | CC(O)(P(=O)(O)O)P(=O)(O)O [HEDP, 1-Hydroxyethylidene-1,1′-diphosphonic acid]
9 |  | 7.40 |  |  |  |  |  |  | O=C(O)C(O)C(O)C(=O)O (stereo not drawn) [Tartaric acid]
